Data on eleven compounds can be found in ChEMBL document CHEMBL1201862, “PubChem BioAssay data set” (2004).

Holding throughout (assay): NCI tumour cell line growth inhibition, 48 h
In experiment [1] the test system is HCT-116.
The test system of experiment [2] is LOX IMVI.
Experiment [3] relates to RPMI-8226.
For experiment [4], the system named is U-251.
For experiment [5], the system named is SNB-19.
The test system of experiment [6] is IGROV-1.
In experiment [7] the test system is Hs-578T.
Experiment [8] has as its system T47D.
Experiment [9] relates to CAKI-1.
Experiment [10] relates to HOP-62.
Experiment [11] relates to A498.
The subject of experiment [12] is BT-549.
Experiment [13] relates to MDA-MB-231.
In experiment [14] the test system is 786-0.
Experiment [15] deals with OVCAR-5.
Experiment [16] deals with ACHN.
In experiment [17] the test system is HCT-15.
Experiment [18] relates to CCRF-CEM.
Experiment [19] deals with NCI-H522.

Where “and” joins values, the source holds several entries; their conditions need not be identical. Identical values can stand only once.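 Test compounds were applied to cells in 96-well plates for 48 hours at 5 doses. GI50 marks 50% less growth.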 Calls of active or inactive are those of the source. Rule as the data show it: active = GI50 up to about 1.1 µM and inactive = higher. Non-standard residues stand in square brackets, D forms with d. Residues, ends and D or L forms follow the SMILES beside them. *: point of attachment. Benzoyl(4-OMe) = COc1ccc(C(=O)*)cc1; 2Thi = N[CH](Cc1cccs1)C(=O)O

As for `O=C(O)C1CC(O)CN1` (configuration not stated), the GI50 in experiment [1], in experiment [2], in experiment [3], in experiment [4], in experiment [5] and in experiment [6] was > 100 µM (inactive) throughout. For the same compound, the GI50 in experiment [7], in [8], in experiment [9], in [10], in [11] and in experiment [12] was > 100 µM (inactive) in each case. The GI50 is > 100 µM (inactive) in experiment [13]; > 100 µM (inactive) in experiment [14]; > 100 µM (inactive) in experiment [15]; > 100 µM (inactive) in experiment [16]; greater than 100 µM in experiment [17]; > 100 µM (inactive) in [18].

On to `O=c1oc2cc(/N=C/c3ccc4c(c3)OCO4)ccc2c2ccccc12`, for which the GI50 is 46.3 µM (inactive) in [1]; 56.8 µM (inactive) in experiment [19]; 79.8 µM (inactive) in [2]; 43.1 µM (inactive) in experiment [4]; 50.2 µM (inactive) in experiment [5]; 78.3 µM (inactive) in experiment [6]. Also, the GI50 in [7] is > 100 µM (inactive); in experiment [8] it was 43.7 µM (inactive); in [9], 65 µM (inactive); in experiment [10], 36 µM (inactive); in [11], 49.8 µM (inactive); in experiment [12], > 100 µM (inactive). In addition, the GI50 in experiment [13] is 77.4 µM (inactive); in [14], 35 µM (inactive); in experiment [15], > 100 µM (inactive); in [16], 58.1 µM (inactive); in experiment [17] it was greater than 100 µM; in experiment [18], 50.4 µM (inactive).

For `N#Cc1c(-c2ccccc2)c(C#N)c(=S)n(C2OCC(O)C(O)C2O)c1N` (configuration not stated), the GI50 in experiment [19], in experiment [2], in experiment [3], in experiment [5], in experiment [6] and in [7] was > 100 µM (inactive) throughout. For the same compound, the GI50 in experiment [8] was 75.9 µM (inactive) and 77.4 µM (inactive); in experiment [9], > 100 µM (inactive); in experiment [10], > 100 µM (inactive); in [11] it was > 100 µM (inactive); in [12], > 100 µM (inactive); in experiment [13], > 100 µM (inactive). Also, the GI50 in [14] is > 100 µM (inactive); in experiment [15], > 100 µM (inactive); in experiment [16], > 100 µM (inactive); in experiment [17] it was greater than 100 µM; in experiment [18] it was > 100 µM (inactive).

As to `COC(=O)[C@]1(C)CCCC2(C)C3=C(CCC21)CC1(CC3)SCCS1` (some centres not stated), the GI50 in [1], in [19], in experiment [3], in [4], in [5] and in experiment [6] was > 10 µM (inactive) throughout. Moreover, the GI50 in [7], in [8], in experiment [9], in [10], in [11] and in experiment [12] was > 10 µM (inactive) in each case. Further, the GI50 in experiment [13] was > 10 µM (inactive); in [14], > 10 µM (inactive); in experiment [16], > 10 µM (inactive); in experiment [17], greater than 10 µM; in experiment [18] it was > 10 µM (inactive).

In the case of `COc1ccc(N2C(=O)/C(=C\c3cc(OC)c(OC)c(OC)c3)S(=O)(=O)C2c2ccccc2)cc1` (configuration not stated), the GI50 was 18.8 µM (inactive) in experiment [1]; 23.1 µM (inactive) in experiment [19]; 20 µM (inactive) in experiment [2]; 12.2 µM (inactive) in experiment [3]; 11.3 µM (inactive) in experiment [4]; 18.5 µM (inactive) in [5]. The GI50 in [7] is 58.3 µM (inactive); in experiment [8] it was 24.7 µM (inactive); in experiment [9], 84.7 µM (inactive); in experiment [10], 48.8 µM (inactive); in [11], > 100 µM (inactive); in [12], 22 µM (inactive). The GI50 in [13] was 34.8 µM (inactive); in [14] it was 43.5 µM (inactive); in experiment [16], 48.3 µM (inactive); in experiment [17], 27.7 µM; in [18], 39.2 µM (inactive).

Take `COc1cc2c(=O)cnoc2cc1O`: the GI50 in [19], in experiment [3], in experiment [4], in experiment [5], in experiment [6] and in experiment [7] was > 100 µM (inactive) in each case. In addition, the GI50 was > 100 µM (inactive) in experiment [8]; > 100 µM (inactive) in [9]; 39.5 µM (inactive) in experiment [11]; > 100 µM (inactive) in experiment [12]; > 100 µM (inactive) in [13]; > 100 µM (inactive) in [14]. For the same compound, the GI50 in experiment [15] is > 100 µM (inactive); in [16], > 100 µM (inactive); in experiment [17], greater than 100 µM; in experiment [18] it was > 100 µM (inactive).

In the case of `O/N=C/C1c2ccccc2-c2ccccc21`, the GI50 in [1] is 16.3 µM (inactive); in experiment [19] it was 16.9 µM (inactive); in experiment [2] it was 23 µM (inactive); in [3], 21.5 µM (inactive); in experiment [4] it was 19.4 µM (inactive); in experiment [5], 18.4 µM (inactive). In addition, the GI50 in experiment [7] was 18.7 µM (inactive); in [8] it was 19.3 µM (inactive); in experiment [9], 14 µM (inactive); in [10], 17.9 µM (inactive); in experiment [11], 17.5 µM (inactive); in [12], 16.9 µM (inactive). For the same compound, the GI50 is 14.6 µM (inactive) in experiment [13]; 3.7 µM (inactive) in [14]; 16.4 µM (inactive) in experiment [16]; 19.5 µM in [17]; 19.5 µM (inactive) in experiment [18].

As to `CCOP(=O)(CCCC(O)CNc1cc(Cl)nc(N)n1)OCC` (configuration not stated), the GI50 in [1], in experiment [19], in [2], in experiment [3], in experiment [4] and in [6] was > 100 µM (inactive) each time. Also, the GI50 in [7], in [8], in experiment [9], in experiment [10], in experiment [11] and in experiment [12] was > 100 µM (inactive) each time. The GI50 is > 100 µM (inactive) in experiment [13]; > 100 µM (inactive) in experiment [14]; > 100 µM (inactive) in experiment [15]; > 100 µM (inactive) in experiment [16]; greater than 100 µM in experiment [17]; > 100 µM (inactive) in [18].

As to `NC(=O)c1ccc(NS(=O)(=O)c2ccc(N)cc2)nc1`, the GI50 in experiment [1], in experiment [2], in experiment [3], in [4], in [5] and in experiment [6] was > 100 µM (inactive) in each case. In addition, the GI50 in experiment [7], in [8], in [9], in experiment [10], in experiment [11] and in [12] was > 100 µM (inactive) in each case. Also, the GI50 is > 100 µM (inactive) in [13]; > 100 µM (inactive) in experiment [14]; > 100 µM (inactive) in [15]; > 100 µM (inactive) in experiment [16]; greater than 100 µM in [17]; > 100 µM (inactive) in [18].

Turning to `CC(=O)OC12c3ccccc3C(c3ccccc31)C1C(=O)N(c3ccccc3O)C(=O)C12` (configuration not stated), the GI50 in experiment [1] is > 100 µM (inactive); in experiment [2], > 100 µM (inactive); in experiment [3], 66.5 µM (inactive); in [4] it was > 100 µM (inactive); in [5], 84.9 µM (inactive); in [6], > 100 µM (inactive). Besides, the GI50 in experiment [7] is > 100 µM (inactive); in experiment [8], > 100 µM (inactive); in experiment [9], > 100 µM (inactive); in experiment [10], 96.4 µM (inactive); in [11] it was 90.2 µM (inactive); in [12], > 100 µM (inactive). The GI50 in experiment [13] is > 100 µM (inactive); in experiment [14] it was > 100 µM (inactive); in experiment [15], > 100 µM (inactive); in experiment [16] it was > 100 µM (inactive); in [17] it was greater than 100 µM; in experiment [18] it was 57.3 µM (inactive).

In the case of `CCC(C)C(NC(=O)C(Cc1cccs1)NC(=O)C(CC(C)C)NC(=O)C(CC(C)C)NC(=O)C(CCCCN)NC(=O)C(CCCNC(=N)N)NC(=O)c1ccc(OC)cc1)C(=O)NC(CC(C)C)C(N)=O` (configuration not stated) ({Benzoyl(4-OMe)}-RKLL[2Thi]IL-NH2; configuration not given here), the GI50 in experiment [1], in [19], in experiment [2], in experiment [3], in experiment [4] and in experiment [5] was > 100 µM (inactive) in each case. The GI50 in [7], in experiment [8], in experiment [9], in experiment [10], in experiment [11] and in experiment [12] was > 100 µM (inactive) in each case. The GI50 in experiment [13] is > 100 µM (inactive); in experiment [14] it was > 100 µM (inactive); in experiment [15], > 100 µM (inactive); in [16] it was > 100 µM (inactive); in experiment [17], greater than 100 µM; in experiment [18], 78.2 µM (inactive).
